Test results taken from patent US20090306053A1, “Highly selective rho-kinase inhibitor” (priority 2005, published 2009).
pIC50: −log10 of the molar value.

How the values were obtained:
Type in all cases: biochemical
[1] = target: T1, Purified bovine PKGα (Bos taurus, UniProt P00516); test: PKG kinase assay (Kinase-Glo ATP consumption); conditions: for pIC50: 1 μM ATP, read-out: Kinase Inhibiting Activity (IC50) PKG; for Realative Inhibitory Activity PKG: relative ratio to ROCKII (=1.0), based on IC50 values
T1 construct: Purified bovine PKGα (Promega); purchased Promega
T1 sequence (P00516 1-671): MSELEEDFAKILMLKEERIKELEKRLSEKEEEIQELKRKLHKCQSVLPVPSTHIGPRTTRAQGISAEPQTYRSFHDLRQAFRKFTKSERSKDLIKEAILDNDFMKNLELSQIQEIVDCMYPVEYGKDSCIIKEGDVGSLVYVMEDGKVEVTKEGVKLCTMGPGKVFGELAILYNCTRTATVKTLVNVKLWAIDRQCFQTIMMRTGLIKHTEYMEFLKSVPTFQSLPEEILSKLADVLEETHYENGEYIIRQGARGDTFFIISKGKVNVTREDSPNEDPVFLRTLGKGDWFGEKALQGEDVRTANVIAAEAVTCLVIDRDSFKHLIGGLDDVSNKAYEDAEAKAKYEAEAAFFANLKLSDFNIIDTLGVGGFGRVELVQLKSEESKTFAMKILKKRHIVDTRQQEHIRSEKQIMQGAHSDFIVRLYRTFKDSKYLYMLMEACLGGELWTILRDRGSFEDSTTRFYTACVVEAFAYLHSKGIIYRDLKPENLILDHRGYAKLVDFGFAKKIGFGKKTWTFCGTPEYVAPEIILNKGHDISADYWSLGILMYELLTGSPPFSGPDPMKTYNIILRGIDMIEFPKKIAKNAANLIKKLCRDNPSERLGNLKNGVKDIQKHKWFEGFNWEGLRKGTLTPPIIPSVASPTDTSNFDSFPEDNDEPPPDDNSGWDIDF
Protocol: Purified bovine PKGα (Promega) was used to evaluate its activity to phosphorylate a substrate peptide (RKISASEF, Promega).
(§1) In a system of the total volume of 50 μL, the reaction of the above-mentioned enzyme (64 ng) was carried out at room temperature for 80 minutes in the presence of 40 mM of Tris-HCl (pH 7.5), 20 mM of magnesium chloride, 10 μM of cGMP (Sigma), 100 μM of the above peptide, and 1 μM of ATP. After the kinase reaction, the luminescence intensity corresponding to the amount of ATP in the reaction system was measured using a luciferase reagent (Kinase-Glo Luminescent Kinase Assay kit, Promega) with a chemiluminescence measurement apparatus (MicroLumat, Berthold Technologies). The amount of ATP consumed by the phosphorylation reaction was calculated by comparison with the luminescence intensity in the system when the kinase reaction was not carried out.
(§2) With this system, the kinase reaction was carried out in the presence of a compound at various concentrations, and the IC50 value of the compound was determined based on the resulting compound concentration-response curve for ATP consumption.
(§3) The ROCKII-inhibiting activity of a compound to be tested was defined as 1.0, and the inhibitory activities of the compound against kinases (PKA, PKG, CaMKII, and AuroraA) other than ROCKII were calculated as relative ratios to the ROCKII-inhibiting activity, based on the IC50 values calculated using the above-described evaluation system.

[2] = target: T2, Purified rat CaMKII (Rattus norvegicus, UniProt P11275); test: CaMKII kinase assay (Kinase-Glo ATP consumption); conditions: 1 μM ATP; read-out: Kinase Inhibiting Activity (IC50) CaMKII
T2 construct: purchased Upstate
Protocol: Purified rat CaMKII (containing CaMKIIα and small amounts of β, γ, and δ isoforms, Upstate) was used to evaluate its activity to phosphorylate a substrate peptide (KKALRRQETVDAL, Upstate).
In a system of the total volume of 50 μL, the reaction of the above-mentioned enzyme (33 ng) was carried out at room temperature for 60 minutes in the presence of 50 mM of Tris-HCl (pH7.5), 10 mM of magnesium chloride, 2 mM of calcium chloride, 0.04 mg/mL of BSA, 16 μg/mL of purified bovine brain calmodulin (Sigma), 0.5 mM of DTT, 50 µM of the above peptide, and 1 μM of ATP. After the kinase reaction, the luminescence intensity corresponding to the amount of ATP in the reaction system was measured using a luciferase reagent (Kinase-Glo Luminescent Kinase Assay kit, Promega) with a chemiluminescence measurement apparatus (MicroLumat, Berthold Technologies). The amount of ATP consumed by the phosphorylation reaction was calculated by comparison with the luminescence intensity in the system when the kinase reaction was not carried out.
as §2, §3

[3] = target: T3, Recombinant mouse MKK4 (Mus musculus, UniProt P47809); test: MKK4 kinase assay (Kinase-Glo ATP consumption); conditions: 1 μM ATP; read-out: Kinase Inhibiting Activity (IC50) MKK4
T3 construct: from 34th to 397th amino acids; purchased Upstate
T3 sequence (P47809 34-397): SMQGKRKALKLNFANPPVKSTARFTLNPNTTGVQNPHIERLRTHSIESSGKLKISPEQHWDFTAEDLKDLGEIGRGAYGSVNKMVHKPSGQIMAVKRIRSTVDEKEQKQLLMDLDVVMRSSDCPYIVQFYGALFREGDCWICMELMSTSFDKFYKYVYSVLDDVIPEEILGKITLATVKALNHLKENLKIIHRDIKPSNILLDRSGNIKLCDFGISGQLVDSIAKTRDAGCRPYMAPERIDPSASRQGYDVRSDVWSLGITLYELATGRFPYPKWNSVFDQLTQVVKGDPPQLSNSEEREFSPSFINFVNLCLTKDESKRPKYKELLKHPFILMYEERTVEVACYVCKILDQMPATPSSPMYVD
Protocol: as §1, with “(400” for “(64”, “25” for “40”, “10” for “20”, “0.02 mg/mL” for “10 μM of cGMP (Sigma), 100 μM”, “JNK1α1,” for “peptide,”
as §2

[4] = target: T4, Recombinant human Ab1 (Homo sapiens, UniProt P00519); test: Abl kinase assay (Kinase-Glo ATP consumption); conditions: 1 μM ATP; read-out: Kinase Inhibiting Activity (IC50) Abl
T4 construct: from 27th to 1149th amino acids; purchased Upstate
Protocol: Recombinant human Ab1 (from 27th to 1149th amino acids, Upstate) was used to evaluate its activity to phosphorylate a substrate peptide (EAIYAAPFAKKK, Upstate).
as §1, with “(20” for “(64”, “50” for “40”, “10” for “20”, “50” for “10 μM of cGMP (Sigma), 100”
as §2

T4 sequence (P00519 27-1149 isoform P00519-2): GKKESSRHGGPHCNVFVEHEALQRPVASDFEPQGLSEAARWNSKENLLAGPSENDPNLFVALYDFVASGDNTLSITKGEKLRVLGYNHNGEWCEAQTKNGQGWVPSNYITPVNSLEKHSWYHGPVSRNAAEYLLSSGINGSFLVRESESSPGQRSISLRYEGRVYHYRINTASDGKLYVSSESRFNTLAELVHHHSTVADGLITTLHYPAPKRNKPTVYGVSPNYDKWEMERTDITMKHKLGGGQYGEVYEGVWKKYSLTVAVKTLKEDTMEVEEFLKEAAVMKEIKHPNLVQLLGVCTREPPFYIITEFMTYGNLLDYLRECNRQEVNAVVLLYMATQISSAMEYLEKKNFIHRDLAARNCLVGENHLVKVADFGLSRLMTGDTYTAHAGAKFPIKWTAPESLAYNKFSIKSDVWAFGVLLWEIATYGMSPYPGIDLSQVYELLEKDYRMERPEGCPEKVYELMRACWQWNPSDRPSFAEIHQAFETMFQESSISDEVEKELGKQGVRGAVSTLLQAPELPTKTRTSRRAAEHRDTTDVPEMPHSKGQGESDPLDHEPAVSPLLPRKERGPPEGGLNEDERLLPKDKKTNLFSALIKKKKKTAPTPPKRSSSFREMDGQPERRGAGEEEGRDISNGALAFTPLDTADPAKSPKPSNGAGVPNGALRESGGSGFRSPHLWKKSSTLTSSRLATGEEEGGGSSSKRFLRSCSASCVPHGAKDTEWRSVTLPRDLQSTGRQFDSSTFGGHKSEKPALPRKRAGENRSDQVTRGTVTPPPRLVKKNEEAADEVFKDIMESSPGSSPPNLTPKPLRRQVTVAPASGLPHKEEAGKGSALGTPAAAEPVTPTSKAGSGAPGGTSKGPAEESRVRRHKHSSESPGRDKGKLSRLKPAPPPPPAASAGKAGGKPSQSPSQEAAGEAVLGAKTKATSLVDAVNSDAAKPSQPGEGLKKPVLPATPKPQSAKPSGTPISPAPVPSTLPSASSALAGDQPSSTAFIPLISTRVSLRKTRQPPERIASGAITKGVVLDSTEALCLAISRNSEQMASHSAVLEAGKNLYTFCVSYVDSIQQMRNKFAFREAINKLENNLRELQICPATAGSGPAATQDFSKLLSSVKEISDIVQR

Compound | pIC50 [1] | Realative Inhibitory Activity PKG [1] | pIC50 [2] | pIC50 [3] | pIC50 [4]
2-(S)-1-(4-fluoroisoquinoline-5-sulfonyl)-4-glycyl-2-methylhomopiperazine dihydrochloride [Example 1] | 4.20 | 2117 | 4.64 | < 4.00 | < 4.00
CNCC(=O)N1CCCN(S(=O)(=O)c2cccc3cncc(F)c23)[C@@H](C)C1.Cl.Cl [Example 2, 2-(S)-1-(4-fluoroisoquinoline-5-sulfonyl)-2-methyl-4-(N-methylglycyl)homopiperazine dihydrochloride] | 4.55 | 933 | 4.57 | < 4.00 | < 4.00
